Columns and labels:
[1] = biological target: T1, ctPrp43 (Prp43) (Thermochaetoides thermophila, UniProt G0RY84); assay: coupled ATPase assay, NADH absorption, Michaelis-Menten titration; assay type: biochemical; details: no Pfa1(gp), no ssRNA
T1 construct: gene CTHT_0005780; expressed in E. coli Rosetta II as N-terminal GST fusion with C-terminal His6 or Strep tag; SEC purified; borders in SI
From the text: coupled ATPase assay, NADH absorption, Michaelis-Menten titration on ctPrp43 (Prp43) | Michaelis–Menten titration and table with ATP turnover numbers (kcat) and dissociation constants (KM)

[2] = biological target: T2, ctPrp43–Pfa1(gp) complex (Thermochaetoides thermophila, UniProt G0RY84); assay: as above; assay type: biochemical; details: with Pfa1(gp), no ssRNA
T2 construct: gene CTHT_0005780; Prp43 with C-terminal His6 or Strep tag plus isolated G-patch motif of Pfa1; both from E. coli Rosetta II as GST fusions; borders in SI; with G-patch protein Pfa1 (G-patch motif)
T2 sequence (G0RY84 entry or part of it, one chain of several): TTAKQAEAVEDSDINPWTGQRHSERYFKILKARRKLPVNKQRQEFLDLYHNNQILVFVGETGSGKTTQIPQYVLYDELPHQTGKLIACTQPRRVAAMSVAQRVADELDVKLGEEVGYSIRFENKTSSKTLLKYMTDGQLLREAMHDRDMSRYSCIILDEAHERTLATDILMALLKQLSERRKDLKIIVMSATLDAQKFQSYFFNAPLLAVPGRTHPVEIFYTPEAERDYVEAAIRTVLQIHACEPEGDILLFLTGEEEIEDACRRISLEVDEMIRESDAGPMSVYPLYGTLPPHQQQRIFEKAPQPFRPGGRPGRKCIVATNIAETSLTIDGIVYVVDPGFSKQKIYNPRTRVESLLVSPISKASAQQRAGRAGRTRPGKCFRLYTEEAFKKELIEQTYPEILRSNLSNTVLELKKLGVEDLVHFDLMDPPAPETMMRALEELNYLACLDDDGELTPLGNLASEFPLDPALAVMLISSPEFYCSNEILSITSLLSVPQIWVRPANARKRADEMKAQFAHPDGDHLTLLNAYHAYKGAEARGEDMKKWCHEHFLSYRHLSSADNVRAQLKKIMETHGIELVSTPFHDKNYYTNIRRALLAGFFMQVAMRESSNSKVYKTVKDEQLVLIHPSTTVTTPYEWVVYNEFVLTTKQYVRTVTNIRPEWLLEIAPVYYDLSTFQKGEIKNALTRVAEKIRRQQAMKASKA
From the text: coupled ATPase assay, NADH absorption, Michaelis-Menten titration on ctPrp43–Pfa1(gp) complex | showing the stimulation of Prp43 ATPase activity by Pfa1(gp) and ssRNA

T1 sequence (G0RY84 entry or part of it): as the sequence (G0RY84 entry or part of it, one chain of several) above

Km [1]: 29.5 ± 6 µM | Km [2]: 4.5 ± 0.3 µM
Structure (SMILES): Nc1ncnc2c1ncn2[C@@H]1O[C@H](COP(=O)(O)OP(=O)(O)OP(=O)(O)O)[C@@H](O)[C@H]1O [ATP]

From PMC9860317, “Regulation of the DEAH/RHA helicase Prp43 by the G-patch factor Pfa1” (Proceedings of the National Academy of Sciences of the …, 2022)
